This is an account of results in patent publication US20030069194A1, “Inhibition of viral replication by targeting RNA-DNA complexes” (priority 2001, published 2003).

Experiment [1] concerns 18C-18R duplex. The experiment can be described thus: Isothermal titration calorimetry (ITC), 18C-18R duplex. Type of experiment: binding, HIV-1. The following applies: for ΔHb (binding enthalpy): 18C-18R duplex, ITC at 25° C. As to the method:
(§1) Isothermal calorimetric measurements were performed at 25° C. on a MicroCal VP-ITC (MicroCal, Inc., Northampton, Mass.). In a typical experiment, 5 μl aliquots of 500 μM aminoglycoside were injected from a 250 μl rotating (430 RPM) syringe into an isothermal sample chamber containing 1.31 mL of either a 18C-18R solution that was 10 μM in duplex or a 18C-18D solution that was 15 μM in duplex. Each experiment of this type was accompanied by the corresponding control experiment in which 5 μL aliquots of 500 μM drug were injected into a solution of buffer alone. The duration of each injection was 5 seconds and the delay between injections was 240 seconds. The initial delay prior to the first injection was 60 seconds. Each injection generated a heat burst curve (μcal/sec vs. sec). The area under each curve was determined by integration [using the Origin version 5.0 software (MicroCal, Inc., Northampton, Mass.)] to obtain a measure of the heat associated with that injection. The heat associated with each drug-buffer injection was subtracted from the corresponding heat associated with each drug-duplex injection to yield the heat of drug binding for that injection. The calorimeter was calibrated both electronically and chemically. Pilch, D. S., Kirolos, M. A., Liu, X., Plum, G. E. & Breslauer, K. J. Berenil [1,3-bis-(4′-amidinophenyl)triazene] binding to DNA duplexes and to a RNA duplex: Evidence for both intercalative and minor groove binding properties, Biochemistry 34, 9962-9976 (1995). All duplex solutions were preheated for 5 minutes at 85° C. and then cooled to room temperature prior to their use in the ITC experiments. The buffer solutions for the ITC experiments contained 10 mM PIPES (pH 6.0) and 5 mM MgCl2.
(§2) Table 1 summarizes the apparent association constants at 25° C. that were calculated using equations (1)-(3) for neomycin and paromomycin binding to the 18C-18R and 18C-18D duplexes. The drug binding enthalpies (ΔHb) required for extrapolation of the binding constants at Tm to common reference temperature of 25° C. using equation (3) were determined using isothermal titration calorinietry (ITC). […] Each of the heat burst curves in FIG. 4 corresponds to a single drug injection, with the seven injections resulting in a final drug to duplex ratio (rdup) of either 0.83 (when 18C-18D served as the target duplex) or 1.25 (when 18C-18R served as the target duplex). The areas under these heat burst curves were determined by integration to yield the associated injection heats. For each titration, the seven injection heats were similar in magnitude, an observation consistent with all of the injected drug being bound by the host duplex. These injection heats were corrected by subtraction of the corresponding dilution heats derived from the injection of identical amounts of drug into buffer alone. The resulting corrected injection heats then were divided by the total concentration of injected drug and averaged to yield the ΔHb values listed in Table 1.

The subject of experiment [2] is 18C-18D duplex. Nature of the experiment: Isothermal titration calorimetry (ITC), 18C-18D duplex. As to conditions: for ΔHb (binding enthalpy): 18C-18D duplex, ITC at 25° C. Type of experiment: binding, HIV-1. The procedure: as §1, §2
A general note: ITC needs no label: the signal is the heat of the interaction.

In experiment [3] the test system is 18C-18D duplex (RNase H substrate of HIV-1 RT). Nature of the experiment: RT-induced RNase H cleavage of the 18C-18D duplex (gel assay). Type of experiment: biochemical. The following applies: for hierarchy of inhibition of RT-induced cleavage: 18C-18D duplex, aminoglycosides 2.0 mM, FIG. 2b, 2c. From the text: The second model oligonucleotide was a 18mer chimeric duplex (18C-18D). 18C-18D mimics a RNase H substrate during plus-strand strong-stop synthesis (FIG. 2a), which occurs following minus-strand DNA synthesis. Fedoroff, O. Y., et. al., B. R. Structural variation among retroviral primer-DNA junctions: Solution structure of the HIV-1 (−)-strand Okazaki fragment r(gcca)d(CTGC)-d(GCAGTGGC), Biochemistry 35,11070-11080 (1996). For the 18C-18D duplex, RT cleaves the RNA portion of the chimeric strand (18C) opposite the DNA strand (18D) at only a single site (FIGS. 2a, b), in marked contrast to the three cleavage sites observed in the 18C-18Rduplex. This unique cleavage site lies between base positions +1 and +2 (counting from the RNA-DNA junction in the 5′ direction on the cleaved chimeric strand). Furfine, E. S. & Reardon, J. E., Human immunodeficiency virus reverse transcriptase ribonuclease H: Specificity of tRNA(Lys3)-primer excision, Biochemistry 30, 7041-7046 (1991); Smith, J. S. & Roth, M. J. Specificity of human immunodeficiency virus-1 reverse transcriptase-associated ribonuclease H in removal of the minus-strand primer tRNA(Lys3), J. Biol. Chem. 267, 15071-15079 (1992). […] As noted above for the 18C-18R duplex, this hierarchy of cleavage inhibition correlates with the relative binding affinities of the three ligands for the 18C-18D duplex.
Recombinant HIV-1 RT p66 was isolated from Escherichia coli JM 109. Pandey, V. N. et al, Role of methionine 184 of human immunodeficiency virus type-1 reverse transcriptase in the polymerase function and fidelity of DNA synthesis, Biochemistry 35, 2168-2179 (1996). The 18C and 18R oligonucleotides were purchased from Dharmacon Research, Inc. (Lafayette, Colo.). The 18D oligonucleotide was obtained from Integrated DNA Technologies, Inc. (Coralville, Iowa). Neomycin trisulfate trihydrate, the free base of tobramycin, paromomycin sulfate, and kanamycin B sulfate were obtained from Fluka, while kanamycin A monosulfate and ribostamycin sulfate dihydrate were obtained from Sigma.
The RNase H activity of RT was assayed in a 10 μl reaction mixture containing 110 mM PIPES (pH 6.0) and 5 mM MgCl2. Ten pmol of either 18C or 18R were ^32P-labeled at the 5′ end using T4 polynucleotide kinase. For the cleavage experiments, different aminoglycosides were mixed with 0.5 μM of target duplex. A small amount of RT, 0.1 μg, was then added to initiate the cleavage reaction. After incubation at 37° C. for 30 min, the reaction was stopped by addition of 3 M urea containing a mixture of bromophenol blue and xylene cyanol. Denaturation of the 18C-18R duplex required the addition of 5 M urea as well as heating at 95° C. for 5 min prior to gel loading. The cleavage products were resolved in a 10% polyacrylamide gel containing 8 M urea. The gels were subsequently analyzed using a phosphoimager (Molecular Dynamics, Inc.).
To determine the nature of the aminoglycoside-induced inhibition of RT-catalyzed RNase H cleavage, the impact of RT concentration on neomycin-induced inhibition was examined. […] In the presence of 1 mM neomycin, increasing the concentrations of RT overcomes the RNase H inhibitory effect of the drug.

Experiment [4] relates to HIV-1. The following applies: chronically infected cells; Zapp et al., Cell 74 (1993); cited from earlier work.
Setting [5] is: listed as Neomycin, trisulfate trihydrate.

Structures can show the parent of a compound that is named as a salt.

On to `NC[C@@H]1O[C@H](O[C@H]2[C@@H](O)[C@H](O[C@@H]3[C@@H](O)[C@H](N)C[C@H](N)[C@H]3O[C@H]3O[C@H](CO)[C@@H](O)[C@H](O)[C@H]3N)O[C@@H]2CO)[C@H](N)[C@@H](O)[C@@H]1O` [paromomycin, paromomycin sulfate], for which the “ΔHb (binding enthalpy)” value is -4.5 kcal/mol in experiment [1], -4.5 ± 0.1 kcal/mol in experiment [1] (listed as Paromomycin), -3.6 kcal/mol in experiment [2] and -3.6 ± 0.1 kcal/mol in experiment [2] (listed as Paromomycin). Also, the “hierarchy of inhibition of RT-induced cleavage” value in experiment [3] is reported as “neomycin>paromomycin>ribostamycin”.
For the compound Neomycin trisulfate trihydrate, the “ΔHb (binding enthalpy)” value is -8.8 ± 0.1 kcal/mol in experiment [1] (setting [5]), -8.8 kcal/mol in experiment [1] (trisulfate trihydrate), -6.1 ± 0.1 kcal/mol in experiment [2] (setting [5]) and -6.1 kcal/mol in experiment [2] (trisulfate trihydrate). For the same compound, the binding stoichiometry entry in experiment [1] (ITC, 18C-18R) was “approximately five”; in experiment [2] (ITC, 18C-18D) it was “three”. For the same compound, the “inhibition of HIV-1 production” value in experiment [4] is listed as “inhibit HIV-1 production in chronically infected cells”. Also, the “nature of inhibition of RNase H activity of RT” value in experiment [3] (1 mM neomycin, increasing RT 0.1-2.7 μg, FIG. 2d) is on record as “competitive”. For the same compound, in experiment [3], the “hierarchy of inhibition of RT-induced cleavage” value is “neomycin>paromomycin>ribostamycin”. For the same compound, the “neomycin required for 50% inhibition of RT-induced cleavage, 18C-18D relative to 18C-18R” value in experiment [3] (comparison of FIGS. 1c and 2c) is recorded as “approximately 420 times”.
